Measured values taken from PubChem BioAssay AID1963831 (Molecular Pharmacology Branch, DTP, NCI, 2024).

Test system: 889142-216-R-J1-PDC complex spheroid viability
Test: Anticancer human tumor 889142-216-R-J1-PDC patient-derived bladder carcinoma cell line growth inhibition [POLQ]
Conditions: for IC50: curve of first compound; for viability, T/C: stronger effect = lower value
Procedure: Multicellular complex tumor spheroid response to Polymerase (POL) inhibitors (novobiocin, ART-558, RP6685) in combination with a variety of drugs and investigational agents in selected tumor cell lines
The POL inhibitors (novobiocin, ART-558, and RP6685) were evaluated both individually and in combination with standard of care and investigational anticancer small molecules within a complex spheroid model of solid tumors. . Complex spheroids include a stromal component modeled by human endothelial cells (HUVEC) and fibroblasts modeled by human mesenchymal stem cells (MSCs). The concentration ranges selected for each drug and investigational agent were based upon clinically achievable concentrations if the clinical Cmax of the agent was known.
Compounds. The drugs and investigational agents: novobiocin (NSC847541), ART-558 (NSC835418), RP-6685 (NSC848927), peposertib (NSC802822), ceralasertib (NSC780249), elimusertib (NSC800525), camonsertib (NSC841442), AZD-1390 (NSC803789), olaparib (NSC753686), talazoparib (NSC767125), rucaparib (NSC756644), sotorasib (NSC818433), MRTX-1133 (NSC836407), SN-38 (NSC673596), topotecan (NSC609699), epotoside (NSC141540), doxorubicin (NSC123127), gemcitabine (NSC613327), 5-fluorouracil (NSC19893), paclitaxel (NSC125973), vemurafenib (NSC761431), MSA-2 (NSC828583), SN-011 (NSC837082), adavosertib (NSC754352), prexasertib (NSC758257), carboplatin (NSC241240) and oxaliplatin (NSC266046), were obtained from the National Cancer Institute (NCI) Developmental Therapeutics Program Chemical Repository (21). The FDA-approved anticancer drug set is available from the Developmental Therapeutics Program at https://dtp.cancer.gov/organization/dscb/obtaining/. […] The stock solutions were prepared in dimethyl sulfoxide (DMSO, Sigma-Aldrich, St. Louis, MO, cat. D2650), except for the platinum compounds which were prepared in saline (Quality Biological, Gaithersburg, MD, cat. 114-055-101), at 800-fold the tested concentration and stored at -70 degrees C prior to their use. All drugs and investigational agents were tested over a range starting from a high concentration at or near the clinical Cmax and decreasing in half-log increments. If the clinical Cmax for an agent had not been determined, the highest concentration tested was 10 microM, except for SN-38, which was tested at a high concentration of 1 microM.
Cell Culture. All cells were maintained in an incubator at 37 degrees C and 5% CO2 with 95% humidity. The PDC lines were cultured according to standard operating procedures established by the NCI PDMR (https://pdmr.cancer.gov). Table 3 of the manuscript, lists the cell lines along with the number of the three cell types plated to form the mct-spheroids and media for tumor cell growth. After thawing, all PDC lines, except 997537-175-T-J1-PDC and 415267-285-R-J2-PDC, were cultured in Matrigel-coated flasks prepared with a working solution of 1X Ham's F-12 nutrient mix, without supplementation (Thermo Fisher Scientific, cat. 11765054), 100 U/mL penicillin-streptomycin (Thermo Fisher Scientific, cat. 15140122), and 2.5% Matrigel (Corning Inc., Corning, NY, cat. 354248) for the first three passages. The two PDC lines 997537-175-T-J1-PDC and 415267-285-R-J2-PDC were cultured on uncoated flasks. The 857933-349-R-J2-PDC line was cultured in 6C/Colon 1B media containing advanced DMEM/F-12 (Thermo Fisher Scientific, cat. 12634028), 10 mM HEPES (Thermo Fisher Scientific, cat. 15630080), 1X GlutaMAX supplement (Thermo Fisher Scientific, cat. 35050061), 0.1 mg/mL primocin (InvivoGen, San Diego, CA, cat. ant-pm-2), 10% defined fetal bovine serum, heat inactivated (HyClone Laboratories Inc., Logan, UT, cat. SH30070.03HI), 50% L-WRN conditioned media (ATCC, cat. CRL-3276), 1.25 mM N-Acetyl-L-cysteine (Sigma-Aldrich, cat. A9165), 10 mM nicotinamide (Sigma-Aldrich, cat. N0636), 1X B-27 supplement (Thermo Fisher Scientific, cat. 17504044), 1X N-2 supplement (Thermo Fisher Scientific, cat. […]
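Note: spheroids exposed to compounds for seven days.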
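Throughout, for viability, T/C: 100% = DMSO vehicle control viability.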

Cn1ncnc1[C@H]1c2n[nH]c(=O)c3cc(F)cc(c23)N[C@@H]1c1ccc(F)cc1 + Cc1cccc(N(C)C(=O)C2C(O)CCN2c2nc(C)cc(C(F)(F)F)c2C#N)c1
IC50 (second compound 0.0316 µM): > 100 nM | IC50 (second compound 0.1 µM): > 100 nM | IC50 (second compound 0.316 µM): > 100 nM | IC50 (second compound 1 µM): > 100 nM | IC50 (second compound 3.16 µM): > 100 nM | IC50 (second compound 10 µM): > 100 nM | viability, T/C (second compound 0.0316 µM, first compound 0.000316 µM): 100% | viability, T/C (second compound 0.0316 µM, first compound 0.001 µM): 93.9% | viability, T/C (second compound 0.0316 µM, first compound 0.00316 µM): 132% | viability, T/C (second compound 0.0316 µM, first compound 0.01 µM): 74% | viability, T/C (second compound 0.0316 µM, first compound 0.0316 µM): 85.1% | viability, T/C (second compound 0.0316 µM, first compound 0.1 µM): 67.8% | viability, T/C (second compound 0.1 µM, first compound 0.000316 µM): 128% | viability, T/C (second compound 0.1 µM, first compound 0.001 µM): 101% | viability, T/C (second compound 0.1 µM, first compound 0.00316 µM): 130% | viability, T/C (second compound 0.1 µM, first compound 0.01 µM): 104% | viability, T/C (second compound 0.1 µM, first compound 0.0316 µM): 87.9% | viability, T/C (second compound 0.1 µM, first compound 0.1 µM): 71.3% | viability, T/C (second compound 0.316 µM, first compound 0.000316 µM): 109% | viability, T/C (second compound 0.316 µM, first compound 0.001 µM): 111% | viability, T/C (second compound 0.316 µM, first compound 0.00316 µM): 91.7% | viability, T/C (second compound 0.316 µM, first compound 0.01 µM): 93.1% | viability, T/C (second compound 0.316 µM, first compound 0.0316 µM): 80.4% | viability, T/C (second compound 0.316 µM, first compound 0.1 µM): 65.5% | viability, T/C (second compound 1 µM, first compound 0.000316 µM): 97.5% | viability, T/C (second compound 1 µM, first compound 0.001 µM): 110% | viability, T/C (second compound 1 µM, first compound 0.00316 µM): 92% | viability, T/C (second compound 1 µM, first compound 0.01 µM): 92.9% | viability, T/C (second compound 1 µM, first compound 0.0316 µM): 81.9% | viability, T/C (second compound 1 µM, first compound 0.1 µM): 72.9% | viability, T/C (second compound 3.16 µM, first compound 0.000316 µM): 109% | viability, T/C (second compound 3.16 µM, first compound 0.001 µM): 105% | viability, T/C (second compound 3.16 µM, first compound 0.00316 µM): 82.7% | viability, T/C (second compound 3.16 µM, first compound 0.01 µM): 73.6% | viability, T/C (second compound 3.16 µM, first compound 0.0316 µM): 75.5% | viability, T/C (second compound 3.16 µM, first compound 0.1 µM): 73.4% | viability, T/C (second compound 10 µM, first compound 0.000316 µM): 83.8% | viability, T/C (second compound 10 µM, first compound 0.001 µM): 71.6% | viability, T/C (second compound 10 µM, first compound 0.00316 µM): 69.1% | viability, T/C (second compound 10 µM, first compound 0.01 µM): 77.1% | viability, T/C (second compound 10 µM, first compound 0.0316 µM): 81.5% | viability, T/C (second compound 10 µM, first compound 0.1 µM): 62.5%

CC(=O)O[C@H]1C(=O)[C@@]2(C)[C@H]([C@H](OC(=O)c3ccccc3)[C@]3(O)C[C@H](OC(=O)[C@H](O)[C@@H](NC(=O)c4ccccc4)c4ccccc4)C(C)=C1C3(C)C)[C@]1(OC(C)=O)CO[C@@H]1C[C@@H]2O + Cc1cccc(N(C)C(=O)C2C(O)CCN2c2nc(C)cc(C(F)(F)F)c2C#N)c1
IC50 (second compound 0.0316 µM): > 3000 nM | IC50 (second compound 0.1 µM): 344 nM | IC50 (second compound 0.316 µM): > 3000 nM | IC50 (second compound 1 µM): > 3000 nM | IC50 (second compound 3.16 µM): 9.5 nM | IC50 (second compound 10 µM): < 9.49 nM | viability, T/C (second compound 0.0316 µM, first compound 0.00949 µM): 50.8% | viability, T/C (second compound 0.0316 µM, first compound 0.03 µM): 45.5% | viability, T/C (second compound 0.0316 µM, first compound 0.0949 µM): 57.5% | viability, T/C (second compound 0.0316 µM, first compound 0.3 µM): 47.5% | viability, T/C (second compound 0.0316 µM, first compound 0.949 µM): 53.1% | viability, T/C (second compound 0.0316 µM, first compound 3 µM): 57.5% | viability, T/C (second compound 0.1 µM, first compound 0.00949 µM): 51.4% | viability, T/C (second compound 0.1 µM, first compound 0.03 µM): 56.5% | viability, T/C (second compound 0.1 µM, first compound 0.0949 µM): 42.7% | viability, T/C (second compound 0.1 µM, first compound 0.3 µM): 44.4% | viability, T/C (second compound 0.1 µM, first compound 0.949 µM): 59% | viability, T/C (second compound 0.1 µM, first compound 3 µM): 47.3% | viability, T/C (second compound 0.316 µM, first compound 0.00949 µM): 56.7% | viability, T/C (second compound 0.316 µM, first compound 0.03 µM): 50.6% | viability, T/C (second compound 0.316 µM, first compound 0.0949 µM): 46.8% | viability, T/C (second compound 0.316 µM, first compound 0.3 µM): 49.1% | viability, T/C (second compound 0.316 µM, first compound 0.949 µM): 59.4% | viability, T/C (second compound 0.316 µM, first compound 3 µM): 50.3% | viability, T/C (second compound 1 µM, first compound 0.00949 µM): 52% | viability, T/C (second compound 1 µM, first compound 0.03 µM): 54% | viability, T/C (second compound 1 µM, first compound 0.0949 µM): 48.8% | viability, T/C (second compound 1 µM, first compound 0.3 µM): 49.5% | viability, T/C (second compound 1 µM, first compound 0.949 µM): 52.2% | viability, T/C (second compound 1 µM, first compound 3 µM): 53.4% | viability, T/C (second compound 3.16 µM, first compound 0.00949 µM): 49.8% | viability, T/C (second compound 3.16 µM, first compound 0.03 µM): 48.4% | viability, T/C (second compound 3.16 µM, first compound 0.0949 µM): 46.7% | viability, T/C (second compound 3.16 µM, first compound 0.3 µM): 56.9% | viability, T/C (second compound 3.16 µM, first compound 0.949 µM): 48.3% | viability, T/C (second compound 3.16 µM, first compound 3 µM): 46% | viability, T/C (second compound 10 µM, first compound 0.00949 µM): 50.5% | viability, T/C (second compound 10 µM, first compound 0.03 µM): 45.4% | viability, T/C (second compound 10 µM, first compound 0.0949 µM): 46.9% | viability, T/C (second compound 10 µM, first compound 0.3 µM): 48.2% | viability, T/C (second compound 10 µM, first compound 0.949 µM): 44% | viability, T/C (second compound 10 µM, first compound 3 µM): 52.7%
